ChEMBL document CHEMBL5096156, “A Review of Progress in Histone Deacetylase 6 Inhibitors Research: Structural Specificity and Functional Diversity” (J Med Chem, 2021)

Legend:
Histone deacetylase 7 = molecular target: T1, Histone deacetylase 7 (Homo sapiens, UniProt Q8WUI4); assay: Inhibition of full length human recombinant HDAC7 using Ac-LGK(TFA)-AMC fluorogenic peptide as substrate incubated for 2 hrs by microplate reader assay
T1 sequence (Q8WUI4 whole entry): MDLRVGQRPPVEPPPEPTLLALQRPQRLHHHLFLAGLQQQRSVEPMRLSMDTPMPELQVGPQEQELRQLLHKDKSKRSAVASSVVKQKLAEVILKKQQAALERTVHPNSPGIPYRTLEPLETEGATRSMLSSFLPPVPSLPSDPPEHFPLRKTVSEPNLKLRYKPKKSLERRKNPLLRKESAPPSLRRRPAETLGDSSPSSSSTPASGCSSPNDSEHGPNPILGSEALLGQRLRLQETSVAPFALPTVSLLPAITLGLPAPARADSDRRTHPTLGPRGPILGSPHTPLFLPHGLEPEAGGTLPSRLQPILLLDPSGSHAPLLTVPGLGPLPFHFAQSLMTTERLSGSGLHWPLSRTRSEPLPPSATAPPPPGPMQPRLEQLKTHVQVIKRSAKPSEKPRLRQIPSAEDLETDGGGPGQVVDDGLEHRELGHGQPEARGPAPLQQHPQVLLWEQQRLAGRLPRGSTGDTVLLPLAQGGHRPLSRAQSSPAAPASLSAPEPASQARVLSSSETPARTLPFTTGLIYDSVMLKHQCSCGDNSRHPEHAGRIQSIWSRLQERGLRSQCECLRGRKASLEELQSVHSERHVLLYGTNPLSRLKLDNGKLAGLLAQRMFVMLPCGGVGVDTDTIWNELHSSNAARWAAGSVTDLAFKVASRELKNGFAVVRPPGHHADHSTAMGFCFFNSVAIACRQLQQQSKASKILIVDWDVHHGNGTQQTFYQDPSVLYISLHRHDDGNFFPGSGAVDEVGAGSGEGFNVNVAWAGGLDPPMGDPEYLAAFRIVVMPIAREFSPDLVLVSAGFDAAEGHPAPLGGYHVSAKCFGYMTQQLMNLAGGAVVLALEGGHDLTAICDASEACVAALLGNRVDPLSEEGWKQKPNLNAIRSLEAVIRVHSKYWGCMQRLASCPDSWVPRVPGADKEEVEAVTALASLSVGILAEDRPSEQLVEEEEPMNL

Histone deacetylase 8 [1] = molecular target: T2, Histone deacetylase 8 (Homo sapiens, UniProt Q9BY41); assay: Inhibition of full length human recombinant HDAC8 using RHKKAcKAc-AMC fluorogenic peptide as substrate incubated for 2 hrs by microplate reader assay
T2 sequence (Q9BY41 whole entry): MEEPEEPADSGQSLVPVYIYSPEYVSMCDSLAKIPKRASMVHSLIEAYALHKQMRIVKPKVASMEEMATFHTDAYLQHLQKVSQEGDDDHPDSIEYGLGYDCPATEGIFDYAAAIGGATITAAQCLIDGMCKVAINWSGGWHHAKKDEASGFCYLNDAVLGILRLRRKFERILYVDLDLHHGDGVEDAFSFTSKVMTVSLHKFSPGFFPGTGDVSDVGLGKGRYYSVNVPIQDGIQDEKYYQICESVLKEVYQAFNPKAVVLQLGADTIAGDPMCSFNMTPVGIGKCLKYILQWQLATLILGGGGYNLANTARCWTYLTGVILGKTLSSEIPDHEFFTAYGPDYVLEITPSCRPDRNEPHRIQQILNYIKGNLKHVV

Histone deacetylase 11 [2] = molecular target: T3, Histone deacetylase 11 (Homo sapiens, UniProt Q96DB2); assay: Inhibition of full length human recombinant HDAC11 using RHKKAc-AMC fluorogenic peptide as substrate incubated for 2 hrs by microplate reader assay
T3 sequence (Q96DB2 whole entry): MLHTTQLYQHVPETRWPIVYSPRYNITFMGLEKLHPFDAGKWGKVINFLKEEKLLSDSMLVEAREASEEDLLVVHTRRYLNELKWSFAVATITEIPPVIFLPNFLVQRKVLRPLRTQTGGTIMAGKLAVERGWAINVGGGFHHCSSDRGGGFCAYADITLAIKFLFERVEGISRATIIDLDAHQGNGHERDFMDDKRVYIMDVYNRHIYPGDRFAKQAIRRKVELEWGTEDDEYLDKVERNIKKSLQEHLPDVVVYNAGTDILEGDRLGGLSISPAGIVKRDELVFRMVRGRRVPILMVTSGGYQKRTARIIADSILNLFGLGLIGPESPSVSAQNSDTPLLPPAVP

Histone deacetylase 5 = Histone deacetylase 5 (Homo sapiens, UniProt Q9UQL6); assay: Inhibition of full length human recombinant HDAC5 using Ac-LGK(TFA)-AMC fluorogenic peptide as substrate incubated for 2 hrs by microplate reader assay
Histone deacetylase 3 [3] = molecular target: T4, Histone deacetylase 3 (Homo sapiens, UniProt O15379)
Histone deacetylase 1 [4] = molecular target: T5, Histone deacetylase 1 (Homo sapiens, UniProt Q13547); assay: Inhibition of human recombinant HDAC1 using ZMAL -Z-(Ac)Lys-AMC fluorogenic substrate incubated for 30 mins by microplate reader assay
[5] = molecular target: T6, Protein deacetylase HDAC6 (Homo sapiens, UniProt Q9UBN7); assay: Inhibition of human recombinant HDAC6 using ZMAL -Z-(Ac)Lys-AMC fluorogenic substrate incubated for 30 mins by microplate reader assay
T6 sequence (Q9UBN7 whole entry): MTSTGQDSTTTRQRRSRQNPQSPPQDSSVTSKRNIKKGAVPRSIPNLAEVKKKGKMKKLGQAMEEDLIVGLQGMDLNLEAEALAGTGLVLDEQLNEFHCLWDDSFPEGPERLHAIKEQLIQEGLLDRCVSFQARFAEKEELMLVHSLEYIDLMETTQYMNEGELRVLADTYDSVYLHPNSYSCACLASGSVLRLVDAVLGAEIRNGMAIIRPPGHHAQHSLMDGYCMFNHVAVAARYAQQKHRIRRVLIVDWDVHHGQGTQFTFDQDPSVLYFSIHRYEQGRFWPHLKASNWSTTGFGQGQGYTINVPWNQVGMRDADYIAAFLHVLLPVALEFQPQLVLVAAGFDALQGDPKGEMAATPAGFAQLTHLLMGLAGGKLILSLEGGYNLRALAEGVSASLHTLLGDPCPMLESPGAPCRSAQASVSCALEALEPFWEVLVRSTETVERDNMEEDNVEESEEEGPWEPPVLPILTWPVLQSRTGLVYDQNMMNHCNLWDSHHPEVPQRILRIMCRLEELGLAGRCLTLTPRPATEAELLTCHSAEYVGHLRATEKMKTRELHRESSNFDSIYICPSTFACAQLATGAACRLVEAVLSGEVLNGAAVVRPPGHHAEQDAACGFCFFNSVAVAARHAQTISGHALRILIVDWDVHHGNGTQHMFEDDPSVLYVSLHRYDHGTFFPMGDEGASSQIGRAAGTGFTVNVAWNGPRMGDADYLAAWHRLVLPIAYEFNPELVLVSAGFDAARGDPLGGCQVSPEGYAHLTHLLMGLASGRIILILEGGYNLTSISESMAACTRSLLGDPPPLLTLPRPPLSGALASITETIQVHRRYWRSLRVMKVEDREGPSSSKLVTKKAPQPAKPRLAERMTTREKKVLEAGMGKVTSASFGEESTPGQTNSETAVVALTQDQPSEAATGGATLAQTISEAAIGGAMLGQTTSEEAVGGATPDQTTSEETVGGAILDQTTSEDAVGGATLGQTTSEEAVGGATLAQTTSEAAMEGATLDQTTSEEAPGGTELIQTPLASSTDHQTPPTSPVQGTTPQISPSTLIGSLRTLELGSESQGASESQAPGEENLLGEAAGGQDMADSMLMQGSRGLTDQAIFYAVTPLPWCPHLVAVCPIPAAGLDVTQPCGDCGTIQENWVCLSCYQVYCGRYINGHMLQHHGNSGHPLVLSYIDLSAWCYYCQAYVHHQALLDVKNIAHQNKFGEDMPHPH

Histone deacetylase 2 [6] = molecular target: T7, Histone deacetylase 2 (Homo sapiens, UniProt Q92769); assay: Inhibition of full length human recombinant HDAC2 incubated for 30 to 60 mins by HDAC-Glo I/II assay
[7] = molecular target: T6, Protein deacetylase HDAC6; assay: Inhibition of full length human recombinant HDAC6 incubated for 30 to 60 mins by HDAC-Glo I/II assay
Histone deacetylase 11 [8] = molecular target: T3, Histone deacetylase 11; assay: Inhibition of full length human recombinant HDAC11 incubated for 30 to 60 mins by HDAC-Glo I/II assay
Histone deacetylase 8 [9] = molecular target: T2, Histone deacetylase 8; assay: Inhibition of full length human recombinant HDAC8 incubated for 30 to 60 mins by HDAC-Glo I/II assay
[10] = molecular target: T8, Polyamine deacetylase HDAC10 (Homo sapiens, UniProt Q969S8); assay: Inhibition of full length human recombinant HDAC10 incubated for 30 to 60 mins by HDAC-Glo I/II assay
T8 sequence (Q969S8 whole entry): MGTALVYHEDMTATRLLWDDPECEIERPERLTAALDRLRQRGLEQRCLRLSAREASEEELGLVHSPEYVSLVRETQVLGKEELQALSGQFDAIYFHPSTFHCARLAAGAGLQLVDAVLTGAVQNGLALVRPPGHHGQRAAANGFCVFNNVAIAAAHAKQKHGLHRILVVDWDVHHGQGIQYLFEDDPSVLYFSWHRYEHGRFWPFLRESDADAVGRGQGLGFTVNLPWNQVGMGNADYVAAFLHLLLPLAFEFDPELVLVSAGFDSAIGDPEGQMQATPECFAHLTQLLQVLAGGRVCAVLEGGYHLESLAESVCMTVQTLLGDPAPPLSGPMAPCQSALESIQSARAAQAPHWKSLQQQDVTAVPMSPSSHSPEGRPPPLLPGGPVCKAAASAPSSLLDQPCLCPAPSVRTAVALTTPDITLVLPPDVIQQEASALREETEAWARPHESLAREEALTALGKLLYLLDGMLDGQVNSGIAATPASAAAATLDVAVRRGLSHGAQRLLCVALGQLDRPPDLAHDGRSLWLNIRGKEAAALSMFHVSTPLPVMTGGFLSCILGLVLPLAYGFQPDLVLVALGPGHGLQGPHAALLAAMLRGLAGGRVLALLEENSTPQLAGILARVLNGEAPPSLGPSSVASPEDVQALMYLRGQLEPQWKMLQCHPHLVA

Histone deacetylase 3 [11] = molecular target: T4, Histone deacetylase 3; assay: Inhibition of full length human recombinant HDAC3 incubated for 30 to 60 mins by HDAC-Glo I/II assay
Histone deacetylase 1 [12] = molecular target: T5, Histone deacetylase 1; assay: Inhibition of full length human recombinant HDAC1 incubated for 30 to 60 mins by HDAC-Glo I/II assay
Histone deacetylase 1 [13] = molecular target: T5, Histone deacetylase 1; assay: Inhibition of HDAC1 (unknown origin)
[14] = molecular target: T6, Protein deacetylase HDAC6; assay: Inhibition of HDAC6 (unknown origin)
[15] = molecular target: T6, Protein deacetylase HDAC6; assay: Inhibition of human recombinant HDAC6 using BML-AK511 as substrate incubated for 60 mins by fluorimetric assay
Histone deacetylase 4 = Histone deacetylase 4 (Homo sapiens, UniProt P56524); assay: Inhibition of human recombinant HDAC4 incubated for 45 mins by microplate reader assay
Histone deacetylase 3 [16] = molecular target: T4, Histone deacetylase 3; assay: Inhibition of human recombinant HDAC3 incubated for 45 mins by microplate reader assay
[17] = molecular target: T9, Protein deacetylase HDAC6 (Homo sapiens) (UniProt Q9UBN7); assay: Inhibition of recombinant HDAC6 (unknown origin) using […] fluorogenic peptide as substrate at 50 uM incubated for 1 hr by microplate reader assay
T9 sequence (whole entry): T6 sequence (Q9UBN7 whole entry)

[18] = molecular target: T9, Protein deacetylase HDAC6 (Homo sapiens); assay: Inhibition of recombinant HDAC6 (unknown origin) using […] fluorogenic peptide as substrate at 5 uM incubated for 1 hr by microplate reader assay
[19] = molecular target: Heat shock protein HSP 90-alpha (Homo sapiens) (UniProt P07900); assay: Inhibition of recombinant HSP90 alpha (unknown origin) at 50 uM by fluorescence polarization competitive binding assay
Histone deacetylase 2 [20] = molecular target: T7, Histone deacetylase 2; assay: Inhibition of full length human recombinant HDAC2 expressed in baculovirus infected Sf9 cells using RHKKAc fluorogenic peptide as substrate incubated for 2 hrs
Histone deacetylase 3 [21] = molecular target: T4, Histone deacetylase 3; assay: Inhibition of full length human recombinant HDAC3 expressed in baculovirus infected Sf9 cells using RHKKAc fluorogenic peptide as substrate incubated for 2 hrs
[22] = molecular target: T8, Polyamine deacetylase HDAC10; assay: Inhibition of full length human recombinant HDAC10 expressed in baculovirus infected Sf9 cells using RHKKAc fluorogenic peptide as substrate incubated for 2 hrs
Histone deacetylase 1 [23] = molecular target: T5, Histone deacetylase 1; assay: Inhibition of full length human recombinant HDAC1 expressed in baculovirus infected Sf9 cells using RHKKAc fluorogenic peptide as substrate incubated for 2 hrs

T5 sequence (Q13547 whole entry): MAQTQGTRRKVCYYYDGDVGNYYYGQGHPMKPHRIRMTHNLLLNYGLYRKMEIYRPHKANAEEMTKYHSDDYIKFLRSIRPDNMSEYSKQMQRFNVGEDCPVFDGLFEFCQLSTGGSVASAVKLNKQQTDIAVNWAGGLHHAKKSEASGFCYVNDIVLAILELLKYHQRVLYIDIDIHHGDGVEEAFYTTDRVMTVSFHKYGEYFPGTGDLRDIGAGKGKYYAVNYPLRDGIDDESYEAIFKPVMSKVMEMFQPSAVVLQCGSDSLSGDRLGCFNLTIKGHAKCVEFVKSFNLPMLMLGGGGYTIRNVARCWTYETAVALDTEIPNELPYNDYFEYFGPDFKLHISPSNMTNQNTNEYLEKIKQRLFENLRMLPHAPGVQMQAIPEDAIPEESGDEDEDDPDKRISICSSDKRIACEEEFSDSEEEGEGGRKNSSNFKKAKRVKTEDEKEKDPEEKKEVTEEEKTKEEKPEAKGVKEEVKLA
T4 sequence (O15379 whole entry): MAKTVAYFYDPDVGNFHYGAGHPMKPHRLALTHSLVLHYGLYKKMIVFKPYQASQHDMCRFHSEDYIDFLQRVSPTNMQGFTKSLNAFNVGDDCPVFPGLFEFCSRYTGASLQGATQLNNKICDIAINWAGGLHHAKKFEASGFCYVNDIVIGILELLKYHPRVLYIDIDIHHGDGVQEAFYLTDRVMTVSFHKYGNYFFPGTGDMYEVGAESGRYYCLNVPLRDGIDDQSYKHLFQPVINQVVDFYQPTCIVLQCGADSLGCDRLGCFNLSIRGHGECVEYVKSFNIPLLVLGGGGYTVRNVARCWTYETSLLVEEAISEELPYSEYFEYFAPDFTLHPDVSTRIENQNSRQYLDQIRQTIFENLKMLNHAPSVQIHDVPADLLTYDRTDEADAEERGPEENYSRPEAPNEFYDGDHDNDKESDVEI
T7 sequence (Q92769 whole entry): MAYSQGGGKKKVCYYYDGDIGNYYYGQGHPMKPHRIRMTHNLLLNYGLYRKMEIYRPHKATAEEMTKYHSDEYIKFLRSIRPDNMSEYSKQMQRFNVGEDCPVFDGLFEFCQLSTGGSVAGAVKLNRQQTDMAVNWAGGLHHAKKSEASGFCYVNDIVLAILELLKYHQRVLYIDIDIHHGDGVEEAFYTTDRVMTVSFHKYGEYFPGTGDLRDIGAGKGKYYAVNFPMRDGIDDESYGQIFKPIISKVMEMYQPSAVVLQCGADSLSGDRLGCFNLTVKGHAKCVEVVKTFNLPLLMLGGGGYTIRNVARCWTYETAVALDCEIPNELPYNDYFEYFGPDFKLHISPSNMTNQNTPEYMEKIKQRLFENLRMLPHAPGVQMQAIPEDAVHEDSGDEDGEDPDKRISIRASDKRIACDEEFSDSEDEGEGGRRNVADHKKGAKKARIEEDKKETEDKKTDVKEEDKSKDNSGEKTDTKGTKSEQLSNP
Chain of Histone deacetylase 4 (P56524 whole entry): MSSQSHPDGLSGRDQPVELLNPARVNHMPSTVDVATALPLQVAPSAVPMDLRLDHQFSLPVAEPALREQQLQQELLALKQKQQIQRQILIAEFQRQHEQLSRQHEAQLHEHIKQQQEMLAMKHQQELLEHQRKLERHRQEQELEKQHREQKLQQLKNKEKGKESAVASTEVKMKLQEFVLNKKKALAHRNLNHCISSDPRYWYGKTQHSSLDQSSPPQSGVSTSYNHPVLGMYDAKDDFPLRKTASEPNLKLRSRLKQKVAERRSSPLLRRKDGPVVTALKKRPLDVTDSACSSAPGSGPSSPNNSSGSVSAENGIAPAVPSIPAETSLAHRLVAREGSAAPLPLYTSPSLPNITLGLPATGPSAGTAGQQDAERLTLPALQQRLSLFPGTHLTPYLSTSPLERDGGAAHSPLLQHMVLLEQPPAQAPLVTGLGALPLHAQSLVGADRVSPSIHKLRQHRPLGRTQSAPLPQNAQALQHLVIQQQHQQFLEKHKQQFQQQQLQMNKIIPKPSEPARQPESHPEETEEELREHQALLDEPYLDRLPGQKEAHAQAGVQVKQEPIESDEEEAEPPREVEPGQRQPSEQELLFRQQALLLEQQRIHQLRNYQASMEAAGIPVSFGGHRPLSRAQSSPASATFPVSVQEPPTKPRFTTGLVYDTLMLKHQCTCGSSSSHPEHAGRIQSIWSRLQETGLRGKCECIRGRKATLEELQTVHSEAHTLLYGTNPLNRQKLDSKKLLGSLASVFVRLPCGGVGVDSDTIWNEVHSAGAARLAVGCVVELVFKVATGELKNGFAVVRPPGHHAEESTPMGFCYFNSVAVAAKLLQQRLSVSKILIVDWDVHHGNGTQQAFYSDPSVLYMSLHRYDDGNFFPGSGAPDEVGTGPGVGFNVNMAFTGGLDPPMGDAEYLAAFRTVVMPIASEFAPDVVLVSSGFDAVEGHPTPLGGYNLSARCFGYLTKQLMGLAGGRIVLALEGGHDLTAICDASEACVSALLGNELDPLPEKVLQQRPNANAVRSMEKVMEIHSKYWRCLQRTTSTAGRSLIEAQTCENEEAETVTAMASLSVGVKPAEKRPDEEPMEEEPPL
Chain of Histone deacetylase 5 (Q9UQL6 whole entry): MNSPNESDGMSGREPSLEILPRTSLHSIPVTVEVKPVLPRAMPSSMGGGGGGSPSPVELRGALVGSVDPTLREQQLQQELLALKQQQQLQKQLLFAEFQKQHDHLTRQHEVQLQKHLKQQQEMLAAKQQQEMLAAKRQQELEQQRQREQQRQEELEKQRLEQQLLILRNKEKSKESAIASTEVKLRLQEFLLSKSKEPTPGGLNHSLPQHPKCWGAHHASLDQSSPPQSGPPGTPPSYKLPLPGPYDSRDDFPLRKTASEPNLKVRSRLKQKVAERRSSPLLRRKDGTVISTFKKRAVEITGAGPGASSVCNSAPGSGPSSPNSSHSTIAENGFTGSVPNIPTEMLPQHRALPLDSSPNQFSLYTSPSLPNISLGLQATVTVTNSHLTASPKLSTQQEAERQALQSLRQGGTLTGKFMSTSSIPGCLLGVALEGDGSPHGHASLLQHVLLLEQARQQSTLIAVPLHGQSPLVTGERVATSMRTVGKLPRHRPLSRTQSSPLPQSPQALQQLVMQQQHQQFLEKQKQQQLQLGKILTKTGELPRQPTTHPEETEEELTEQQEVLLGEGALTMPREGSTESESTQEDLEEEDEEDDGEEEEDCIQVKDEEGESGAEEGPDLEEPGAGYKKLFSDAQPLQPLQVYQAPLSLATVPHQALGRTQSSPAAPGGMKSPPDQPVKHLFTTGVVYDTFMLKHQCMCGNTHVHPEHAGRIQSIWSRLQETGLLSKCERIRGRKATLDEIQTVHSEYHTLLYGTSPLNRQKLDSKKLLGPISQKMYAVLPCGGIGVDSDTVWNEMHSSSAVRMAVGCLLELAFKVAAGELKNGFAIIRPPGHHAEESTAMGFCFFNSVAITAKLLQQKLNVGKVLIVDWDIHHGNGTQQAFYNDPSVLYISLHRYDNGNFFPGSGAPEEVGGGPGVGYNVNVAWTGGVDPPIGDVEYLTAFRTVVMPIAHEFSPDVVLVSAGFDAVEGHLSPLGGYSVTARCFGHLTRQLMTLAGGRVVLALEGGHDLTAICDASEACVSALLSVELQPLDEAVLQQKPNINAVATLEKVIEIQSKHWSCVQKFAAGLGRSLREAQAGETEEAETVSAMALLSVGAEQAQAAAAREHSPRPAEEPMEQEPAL

## O=C(NO)c1ccc(CN2CCCc3cc(Cl)ccc32)cc1
Histone deacetylase 7
  IC50: 4.55 µM
Histone deacetylase 8 [1]
  IC50: 3.72 µM
Histone deacetylase 11 [2]
  IC50: 5.72 µM
Histone deacetylase 5
  IC50: 4.07 µM
Histone deacetylase 3 [3]
  IC50: 29.5 µM

## CCCC1=C(Nc2ccc(C(=O)NO)cc2)C2N=CC=CC2=N1 (stereo not drawn)
Histone deacetylase 1 [4]
  IC50: 2.2 µM
[5]
  IC50: 0.058 µM

## COc1ccc2c3c(cccc13)C(=O)N(Cc1ccc(C(=O)NO)cc1)C2=O
Histone deacetylase 2 [6]
  IC50: 0.162 µM
[7]
  IC50: 0.0001 µM
Histone deacetylase 11 [8]
  IC50: > 30 µM
Histone deacetylase 8 [9]
  IC50: > 30 µM
[10]
  IC50: 0.375 µM
Histone deacetylase 3 [11]
  IC50: 0.064 µM
Histone deacetylase 1 [12]
  IC50: 0.108 µM

## CCN(CC)Cc1ccc(Cn2c(=O)c(OCc3ccc(C(=O)NO)cc3)c(-c3ccccc3)c3ccccc32)cc1
Histone deacetylase 1 [13]
  IC50: 0.322 µM
[14]
  IC50: 0.0069 µM

## O=S(=O)(N1CCN(C2COC2)CC1)N(Cc1ccc(-c2nnc(C(F)(F)F)o2)cn1)c1ccc(F)c(Cl)c1
[15]
  IC50: 0.014 µM

## O=C(NO)c1ccc(CC(=O)N(CCO)c2ccccc2)cc1
Histone deacetylase 4
  IC50: 1.7 µM
Histone deacetylase 3 [16]
  IC50: > 10 µM

## CCN(CC)Cc1ccc(Cn2c(=O)c(OCc3ccc(C(=O)NO)cc3)c(-c3cccnc3)c3ccccc32)cc1
Histone deacetylase 1 [13]
  IC50: 0.319 µM
[14]
  IC50: 0.0115 µM

## Cc1nc(N)nc(COC(=O)c2cccc(-c3cc(C(F)(F)F)on3)c2)n1
[17]
  inhibition: 62%
[18]
  inhibition: 53%
[19]
  inhibition: 32%

## CC(C)(C)OC(=O)Nc1cccc(-c2cc(C(=O)NCCc3cc(C(=O)NO)no3)no2)c1
Histone deacetylase 2 [20]
  IC50: > 50 µM
Histone deacetylase 3 [21]
  IC50: > 50 µM
[22]
  IC50: > 50 µM
Histone deacetylase 1 [23]
  IC50: > 50 µM
